The record followed here is patent publication US20250009634A1, “LIQUID COMPOSITION OF CERAMIDES AND PALMITIC ACID AMIDES” (Unifarco S.p.A., priority 2021, published 2025).

The text on this series: The samples were made in the standard quantity of 50 g, sufficient to perform the solubilisation and stability tests. The concentration ranges of the investigated actives and the sample preparation methods were established after a critical reading of the technical data sheets of each raw material.

As to `CCCCCCCCCCCCCCCC(=O)NC(C)C` [isopalmide, N-isopropyl-palmitoyl amide], the “individual solubilisation in the solubilising agent” value is given as “possible to obtain the individual solubilisation”. For `CCCCCCCCCCCCCCCC(=O)NCCO` [PMEA, palmitoylethanolamide] the value was “possible to obtain the individual solubilisation”.
